Results reported in ChEMBL document CHEMBL5620346, “Current scenario of pyrazole hybrids with in vivo therapeutic potential against cancers” (Eur J Med Chem, 2023).
pIC50: −log10 of the molar value.

Key:
[1] = target: Vascular endothelial growth factor receptor 1 (Homo sapiens, UniProt P17948); assay: Inhibition of VEGFR1 (unknown origin)
[2] = Antiproliferative activity against human UMUC14 cells assessed as reduction in cell viability by SRB assay; format: functional, cell-based
[3] = target: Vascular endothelial growth factor receptor 2 (Homo sapiens, UniProt P35968); assay: Inhibition of VEGFR2 (unknown origin)
NCI-H1581 [4] = assay: Antiproliferative activity against human NCI-H1581 cells assessed as reduction in cell viability by SRB assay; format: functional, cell-based
SNU-16 = assay: Antiproliferative activity against human SNU-16 cells assessed as reduction in cell viability by SRB assay; format: functional, cell-based
[5] = Cmax in CD-1 mouse at 3 mg/kg, ip measured after 24 hrs by LC-MS/MS analysis; format: ADME, organism-based; details: in vivo
KG-1 = assay: Antiproliferative activity against human KG-1 cells assessed as reduction in cell viability by SRB assay
NCI-H1581 [6] = assay: Antitumor activity against human NCI-H1581 cells xenografted in BALB/c nude mouse assessed as tumor growth inhibition once daily at 10 mg/kg, ip for 24 days relative to control; details: NCI-H1581, 576 h, read-out: TGI
NCI-H1581 [7] = assay: Antitumor activity against human NCI-H1581 cells xenografted in BALB/c nude mouse assessed as tumor growth inhibition once daily at 50 mg/kg, ip for 24 days relative to control; details: NCI-H1581, 576 h, read-out: TGI
[8] = AUC (0 to infinity) in CD-1 mouse at 3 mg/kg, ip measured after 24 hrs by LC-MS/MS analysis; format: ADME, organism-based; details: in vivo
[9] = Half life in CD-1 mouse at 3 mg/kg, ip measured after 24 hrs by LC-MS/MS analysis; format: ADME, organism-based; details: in vivo
MCF7 = assay: Antiproliferative activity against human MCF7 cells assessed as reduction in cell viability incubated for 48 hrs by MTT assay; format: functional, cell-based; details: MCF7, 48 h
HT-29 [10] = assay: Antitumor activity against human HT-29 cells xenografted in BALB/c mouse assessed as reduction in tumor growth at 50 mg/kg, ip administered once daily for 14 days relative to control; format: functional; details: HT-29, 336 h, time 14 day, read-out: TGI
HT-29 [11] = assay: Antitumor activity against human HT-29 cells xenografted in BALB/c mouse assessed as reduction in tumor growth at 50 mg/kg, po administered once daily for 14 days relative to control; format: functional; details: HT-29, 336 h, time 14 day, read-out: TGI
MDA-MB-231 = assay: Antiproliferative activity against human MDA-MB-231 cells assessed as reduction in cell viability incubated for 48 hrs by MTT assay; format: functional, cell-based; details: MDA-MB-231, 48 h
Panc02 = assay: Antiproliferative activity against mouse Panc02 cells measured after 72 hrs by MTT assay; format: functional, cell-based; details: Panc02, 72 h
COLO357 = assay: Inhibition of cell growth in human COLO357 cells incubated for 72 hrs by MTT assay; format: functional, cell-based; details: COLO357, 72 h
MIA PaCa-2 = assay: Antiproliferative activity against human MIA PaCa-2 cells measured after 72 hrs by MTT assay; format: functional, cell-based; details: MIA PaCa-2, 72 h
B16-F10 [12] = assay: Antiproliferative activity against mouse B16-F10 cells assessed as reduction in cell proliferation incubated for 4 days by crystal violet based assay; format: functional; details: B16-F10, 96 h
B16-F10 [13] = assay: Antitumor activity against mouse B16-F10 cells implanted in C57BL/6 mouse assessed tumor growth inhibition at 2.5 mg/kg, ip measured for 14 days relative to control; format: functional; details: B16-F10, 336 h, time 14 day, read-out: TGI
PANC-1 = assay: Anticancer activity against human PANC-1 cells assessed as reduction in cell viability by measuring ATP level incubated for 24 hrs by CellTiter-Glo assay; format: functional, cell-based; details: PANC-1, 24 h

Vascular endothelial growth factor receptor 2, sequence (P35968 whole entry): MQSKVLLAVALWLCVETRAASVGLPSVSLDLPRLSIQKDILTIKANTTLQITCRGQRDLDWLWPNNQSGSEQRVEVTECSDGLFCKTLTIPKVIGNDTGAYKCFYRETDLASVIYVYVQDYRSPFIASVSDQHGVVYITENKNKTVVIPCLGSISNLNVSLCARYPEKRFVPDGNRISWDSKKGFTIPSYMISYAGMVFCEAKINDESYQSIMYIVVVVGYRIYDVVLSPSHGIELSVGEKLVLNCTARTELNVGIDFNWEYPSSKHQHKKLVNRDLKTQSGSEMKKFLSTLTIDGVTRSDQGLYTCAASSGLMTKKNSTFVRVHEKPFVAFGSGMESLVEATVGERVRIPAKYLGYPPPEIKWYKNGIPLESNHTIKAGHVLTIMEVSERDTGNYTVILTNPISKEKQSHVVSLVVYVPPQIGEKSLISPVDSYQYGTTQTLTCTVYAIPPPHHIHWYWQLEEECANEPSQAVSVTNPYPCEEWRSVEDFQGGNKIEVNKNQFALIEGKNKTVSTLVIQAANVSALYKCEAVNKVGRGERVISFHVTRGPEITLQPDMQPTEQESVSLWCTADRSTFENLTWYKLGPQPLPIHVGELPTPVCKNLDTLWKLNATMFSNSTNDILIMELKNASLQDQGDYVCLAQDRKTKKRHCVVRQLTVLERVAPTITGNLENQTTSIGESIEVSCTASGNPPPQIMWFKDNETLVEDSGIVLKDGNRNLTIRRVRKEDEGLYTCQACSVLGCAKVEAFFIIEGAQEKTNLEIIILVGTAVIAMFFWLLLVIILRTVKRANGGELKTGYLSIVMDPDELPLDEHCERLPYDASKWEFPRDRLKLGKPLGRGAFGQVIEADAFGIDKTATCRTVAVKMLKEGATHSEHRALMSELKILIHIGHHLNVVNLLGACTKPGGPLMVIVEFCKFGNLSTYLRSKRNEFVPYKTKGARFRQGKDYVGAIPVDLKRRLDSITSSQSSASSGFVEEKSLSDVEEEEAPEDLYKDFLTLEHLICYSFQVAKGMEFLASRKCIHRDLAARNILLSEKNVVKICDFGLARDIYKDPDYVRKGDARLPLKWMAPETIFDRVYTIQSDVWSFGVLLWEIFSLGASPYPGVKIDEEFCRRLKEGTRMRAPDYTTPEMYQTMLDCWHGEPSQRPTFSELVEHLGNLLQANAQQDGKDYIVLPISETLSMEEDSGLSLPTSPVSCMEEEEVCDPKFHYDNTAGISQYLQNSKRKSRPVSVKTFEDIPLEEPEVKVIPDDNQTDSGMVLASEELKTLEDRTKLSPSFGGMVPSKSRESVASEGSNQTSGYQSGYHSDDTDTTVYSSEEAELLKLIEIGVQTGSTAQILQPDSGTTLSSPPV
Vascular endothelial growth factor receptor 1, sequence (P17948 whole entry): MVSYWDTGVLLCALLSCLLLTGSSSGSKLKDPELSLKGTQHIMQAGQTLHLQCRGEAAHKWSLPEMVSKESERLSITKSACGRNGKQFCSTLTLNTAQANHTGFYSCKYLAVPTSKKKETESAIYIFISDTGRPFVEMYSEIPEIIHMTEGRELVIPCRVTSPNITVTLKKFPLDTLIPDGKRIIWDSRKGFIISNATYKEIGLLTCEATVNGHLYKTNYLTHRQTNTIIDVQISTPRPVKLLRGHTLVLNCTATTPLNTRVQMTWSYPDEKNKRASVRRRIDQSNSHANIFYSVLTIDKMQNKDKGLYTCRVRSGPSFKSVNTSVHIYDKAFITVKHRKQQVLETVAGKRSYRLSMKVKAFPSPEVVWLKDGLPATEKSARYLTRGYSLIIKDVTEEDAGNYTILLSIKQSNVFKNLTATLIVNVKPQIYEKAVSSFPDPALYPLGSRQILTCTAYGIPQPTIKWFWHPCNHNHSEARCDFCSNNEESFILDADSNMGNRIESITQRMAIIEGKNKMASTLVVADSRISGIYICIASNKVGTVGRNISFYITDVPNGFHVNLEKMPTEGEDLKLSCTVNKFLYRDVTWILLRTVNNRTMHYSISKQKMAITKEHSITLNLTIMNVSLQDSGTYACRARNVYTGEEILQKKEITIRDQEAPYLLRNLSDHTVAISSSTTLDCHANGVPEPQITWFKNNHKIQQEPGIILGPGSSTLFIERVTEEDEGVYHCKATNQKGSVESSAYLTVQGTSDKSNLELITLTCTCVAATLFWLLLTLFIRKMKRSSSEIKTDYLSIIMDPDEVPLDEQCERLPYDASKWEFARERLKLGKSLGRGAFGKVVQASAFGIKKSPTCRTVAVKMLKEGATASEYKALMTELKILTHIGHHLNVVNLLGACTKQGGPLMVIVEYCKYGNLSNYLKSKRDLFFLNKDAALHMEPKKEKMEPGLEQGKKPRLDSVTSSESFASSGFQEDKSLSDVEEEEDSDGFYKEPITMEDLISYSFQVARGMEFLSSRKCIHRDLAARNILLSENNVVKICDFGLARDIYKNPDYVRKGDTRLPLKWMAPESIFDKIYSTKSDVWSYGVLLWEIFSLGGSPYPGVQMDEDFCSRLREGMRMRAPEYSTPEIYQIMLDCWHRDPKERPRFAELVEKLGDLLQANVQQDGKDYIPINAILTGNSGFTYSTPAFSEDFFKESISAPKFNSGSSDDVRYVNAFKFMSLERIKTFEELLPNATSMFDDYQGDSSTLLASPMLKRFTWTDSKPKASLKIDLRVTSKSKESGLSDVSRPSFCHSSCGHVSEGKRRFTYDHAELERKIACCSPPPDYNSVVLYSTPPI

Cc1ccc2oc(-c3c4c(N)n[nH]c(=O)c4nn3-c3ccc(NC(=O)/C=C/CN(C)C)cc3)c(C)c2c1
pIC50 [1]: 8.52
pIC50 [2]: 7.37
pIC50 [3]: 8.72
pIC50 (NCI-H1581 [4]): 7.37
pIC50 (SNU-16): > 9.52
Cmax [5]: 282 ng/mL
pIC50 (KG-1): 7.37
inhibition in vivo at 10 mg/kg (NCI-H1581 [6]): 74.4%
inhibition in vivo at 50 mg/kg (NCI-H1581 [7]): 91.6%
AUC [8]: 704 ng·h/mL
half-life [9]: 3.7 h

Cc1ccc(C2CC(c3ccc(F)cc3)=NN2C(=O)CN2C(=O)CCC2=O)cc1 (stereo unspecified)
pIC50 (MCF7): 6.11
inhibition in vivo at 50 mg/kg (HT-29 [10]): 66%
inhibition in vivo at 50 mg/kg (HT-29 [11]): 60%

Clc1ccccc1C(c1ccccc1)(c1ccc(CCC[P+](c2ccccc2)(c2ccccc2)c2ccccc2)cc1)n1cccn1 (stereo unspecified)
pIC50 (MDA-MB-231): 5.88
pIC50 (Panc02): 5.88
pIC50 (COLO357): 5.88
pIC50 (MIA PaCa-2): 5.88
pIC50 (B16-F10 [12]): 5.88
inhibition in vivo at 2.5 mg/kg (B16-F10 [13]): 60%
pIC50 (PANC-1): 5.88
